Laboratory results taken from patent US20050245508A1, “Treatment of malignant gliomas with TGF-beta inhibitors” (SCIOS, Inc., priority 2003, published 2005).

How the values were obtained:
[1] = tested on: LN-308 targets; test: Polyclonal NK cell lytic activity, 51Cr release; type: cell-based, human
Method: FIG. 3. Modulation of allogeneic anti-glioma immune responses by Compound No. 79 involves TGF-β antagonism. A. The lytic activity against LN-308 targets of PBL (squares) or purified T cells (triangles) preincubated with irradiated LN-308 cells in the absence (open symbols) or presence (filled symbols) of Compound No. 79 (1 μM) was determined in ^51Cr release assays. B-D. PBL were cultured in the absence (left) or presence (right) of irradiated LN-308 cells for 5 days. The cultures contained Compound No. 79 (1 μM) (filled bars) or not (open bars). Subsequently these effector cells were cocultured for 24 h with fresh non-irradiated LN-308 cells in the absence of Compound No. 79. The release of IFN-γ (B), TNF-α (C) or IL-10 (D) was assessed by Elispot assay. Data are expressed as cytokine-producing cells per 5×10^5 effector cells (n=3, *p<0.05, **p<0.01, t-test, effect of Compound No. 79). E, F. Polyclonal NK cell cultures were exposed to TGF-β1 (5 ng/ml) (E) or diluted (1:4) glioma cell SN (F), without or with Compound No. 79 (1 μM), for 48 h and subsequently used as effectors in ^51Cr release assays using LN-308 cells as targets. Compound No. 79 alone or TGF-β antibody alone had no effect on NK cell activity in these assays (data not shown).
Human PBMC were isolated from healthy donors by density gradient centrifugation (Biocoll, Biochrom KG). Monocytes were depleted by adhesion and differential centrifugation to obtain peripheral blood lymphocytes (PBL). To obtain purified T cells, the PBMC were depleted of B cells and monocytes using LymphoKwik T™ reagent (One Lambda Inc., Canoga Park, Calif.). […]
HLA-A2-mismatched PBL or T cells (107/25 cm2 flask) were cocultured with 106 irradiated (30 Gy) glioma cells for 5 days. […] The maximum 51Cr release was determined by addition of NP40 (1%). After 4 h the supernatants were transferred to a Luma-PlateTM-96 (Packard, Dreieich, Germany) and measured. The percentage of 51Cr release was calculated as follows: 100×([experimental release−spontaneous release]/[maximum release−spontaneous release]).

[2] = tested on: SMA-560 intracranial experimental glioma; test: Syngeneic SMA-560 intracranial glioma in VM/Dk mice; type: in vivo
Method: FIG. 4. […] A. VM/Dk mice received an intracranial injection of 5×10^3 SMA-560 cells. […] B. The animals were treated as in A, but were sacrificed on day 10 to obtain splenocytes. IFN-γ release at 24 h was assessed by Elispot. Data are expressed as cytokine-producing cells per 10^6 effector cells. C. The splenocytes were stimulated with IL-2 for 10 days to generate LAK cells.
VM/Dk mice were purchased from the TSE Research Center (Berkshire, UK). Mice of 6-12 weeks of age were used in all experiments. The experiments were performed according to the German animal protection law. Groups of 7-8 mice were anesthesized before all intracranial procedures and placed in a stereotaxic fixation device (Stoelting, Wood Dale, Ill.). A burr hole was drilled in the skull 2 mm lateral to the bregma. The needle of a Hamilton syringe (Hamilton, Darmstadt, Germany) was introduced to a depth of 3 mm. […] The mice were observed daily and, in the survival experiments, sacrified when developing neurological symptoms, or sacrificed as indicated in the other experiments.

[3] = tested on: SMA-560 glioma cells; test: Glioma cell growth, [methyl-3H]-thymidine incorporation; type: cell-based, murine
Method: FIG. 2. Abrogation of autocrine TGF-β signaling in glioma cells by Compound No. 79. A. The cells were seeded at 10^4 cells/well in 96 well plates and cultured in the absence or presence of Compound No. 79 for 48 h in serum-free medium. Growth was assessed by [methyl-^3H]-thymidine incorporation at 48 h (*p<0.05, t-test). B. Lysates from untreated glioma cells or cells preexposed to Compound No. 79 (1 μM) for 24 h or exposed to TGF-b2 (5 ng/ml) for 1 h or both were assessed for the levels of p-Smad2 or total Smad2/3. Note that the antibodies were specific to p-Smad2 and total Smad 2 and 3, respectively.
The glioma cells and CCL64 cells were maintained in DMEM supplemented with 2 mM L-glutamine (Gibco Life Technologies, Paisley, UK), 10% FCS (Biochrom KG, Berlin, Germany) and penicillin (100 IU/ml)/streptomycin (100 μg/ml) (Gibco). Growth and viability of the glioma cells was examined by crystal violet, LDH release (Roche, Mannheim, Germany) and trypan blue dye exclusion assays. To assess clonogenicity, 500 SMA-560 cells were seeded into 6 well plates (9.4 cm^2). After formation of visible cell formations, colonies>20 cells were counted.

Fc1ccc(Cl)cc1-c1nc(Nc2ccncc2)c2nccnc2n1 [Compound No. 79]
TGF-β-mediated inhibition of NK cell lytic activity ([1]; TGF-β1 5 ng/ml, 1 μM, 48 h, FIG. 3E): relieved
inhibition of NK cell activity by LN-308 cell supernatants ([1]; supernatant diluted 1:4, 48 h, FIG. 3F): blocked
NK cell activity, agent alone ([1]; without TGF-β or supernatant, data not shown): no effect
development of neurological symptoms ([2]; 1 mg/ml in drinking water from day 3, data not shown): delayed
survival rate at 30 days ([2]; 1 mg/ml in drinking water from day 3, control 0%): 29%
median survival ([2]; 1 mg/ml in drinking water from day 3, vehicle 18): 23 days
mean survival ([2]; 1 mg/ml in drinking water from day 3, vehicle 18.6±2.1, p=0.004): 25.1 ± 6.5 days
dose-limiting toxicity ([2]; drinking water 1 mg/ml): No dose-limiting toxicity has been reached
proliferation ([3]; concentrations required to block TGF-β in the CCL64 bioassay, 48 h): no effect
growth ([3]; higher concentrations of up to 1 μM, FIG. 2A): moderately inhibited
